From ChEMBL document CHEMBL4028884, “Discovery, Development, and Cellular Delivery of Potent and Selective Bicyclic Peptide Inhibitors of Grb7 Cancer Target” (J Med Chem, 2017)
Activity calls are given as the source filed them. The calls are words filed in the database; no cut-off is given here. Where a SMILES comes first, the peptide text is derived from it. Bridges are numbered along the chain shown (N, C = ends). [ ]: non-standard residue; d: D form. Phe(4-COOH) = N[C@@H](Cc1ccc(C(=O)O)cc1)C(=O)O

Tests used:
[1] = molecular target: Growth factor receptor-bound protein 7 (Homo sapiens) (UniProt Q14451); assay: Inhibition of GRB7-HER2 interaction in human SKBR3 cells assessed as HER2 detection in cell lysates at 20 uM preincubated for 1 hr followed by fibronectin stimulation measured after 10 mins by Western blot analysis; type: cell-based
[2] = molecular target: Growth factor receptor-bound protein 7 (Homo sapiens) (UniProt Q14451); assay: Inhibition of GRB7-FAK interaction in human SKBR3 cells assessed as FAK detection in whole cells at 20 uM preincubated for 1 hr followed by fibronectin stimulation measured after 10 mins by Western blot analysis; type: cell-based
[3] = molecular target: Growth factor receptor-bound protein 7 (Homo sapiens) (UniProt Q14451); assay: Inhibition of GRB7-SHC interaction in human SKBR3 whole cells at 20 uM preincubated for 1 hr followed by fibronectin stimulation measured after 10 mins by Western blot analysis; type: cell-based
[4] = molecular target: Growth factor receptor-bound protein 7 (Homo sapiens) (UniProt Q14451); assay: Inhibition of GRB7-FAK interaction in human SKBR3 cells assessed as FAK detection in cell lysates at 20 uM preincubated for 1 hr followed by fibronectin stimulation measured after 10 mins by Western blot analysis; type: cell-based
[5] = molecular target: Growth factor receptor-bound protein 7 (Homo sapiens) (UniProt Q14451); assay: Inhibition of GRB7-SHC interaction in human SKBR3 cells assessed as SHC detection in cell lysates at 20 uM preincubated for 1 hr followed by fibronectin stimulation measured after 10 mins by Western blot analysis; type: cell-based
[6] = molecular target: Growth factor receptor-bound protein 7 (Homo sapiens) (UniProt Q14451); assay: Inhibition of GRB7-HER2 interaction in human SKBR3 cells assessed as HER2 detection in whole cells at 20 uM preincubated for 1 hr followed by fibronectin stimulation measured after 10 mins by Western blot analysis; type: cell-based
[7] = molecular target: T1, Growth factor receptor-bound protein 10 (Homo sapiens) (UniProt Q13322); assay: Binding affinity to human GST-tagged GRB10-SH2 domain (471 to 532 residues) expressed in Escherichia coli BL21(DE3) pLys after 60 to 80 secs in presence of 50 mM phosphate buffer by SPR assay
T1 sequence (whole entry): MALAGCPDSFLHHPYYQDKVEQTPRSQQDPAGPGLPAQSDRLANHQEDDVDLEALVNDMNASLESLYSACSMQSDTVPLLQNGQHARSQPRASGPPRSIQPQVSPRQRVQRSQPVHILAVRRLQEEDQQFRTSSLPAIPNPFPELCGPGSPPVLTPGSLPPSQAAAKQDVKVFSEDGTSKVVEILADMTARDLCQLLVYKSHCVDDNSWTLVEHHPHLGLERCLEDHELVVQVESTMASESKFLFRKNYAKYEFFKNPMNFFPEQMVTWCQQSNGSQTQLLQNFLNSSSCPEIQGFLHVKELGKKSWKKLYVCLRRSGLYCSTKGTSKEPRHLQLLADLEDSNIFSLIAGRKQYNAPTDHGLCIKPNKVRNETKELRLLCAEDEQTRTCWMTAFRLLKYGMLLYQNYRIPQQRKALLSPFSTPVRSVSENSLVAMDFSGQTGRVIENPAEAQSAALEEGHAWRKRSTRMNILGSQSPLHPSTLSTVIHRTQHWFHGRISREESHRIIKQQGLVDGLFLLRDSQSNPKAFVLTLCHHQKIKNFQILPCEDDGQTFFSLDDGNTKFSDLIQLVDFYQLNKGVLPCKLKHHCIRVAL

[8] = molecular target: T1, Growth factor receptor-bound protein 10 (Homo sapiens); assay: Binding affinity to human GST-tagged GRB10-SH2 domain (471 to 532 residues) expressed in Escherichia coli BL21(DE3) pLys after 60 to 80 secs in presence of 1 mM phosphate buffer by SPR assay
[9] = molecular target: Growth factor receptor-bound protein 2 (Homo sapiens) (UniProt P62993); assay: Binding affinity to human GST-tagged GRB2-SH2 domain expressed in Escherichia coli BL21(DE3) pLys after 60 to 80 secs in presence of 1 mM phosphate buffer by SPR assay
[10] = molecular target: Growth factor receptor-bound protein 2 (Homo sapiens) (UniProt P62993); assay: Binding affinity to human GST-tagged GRB2-SH2 domain expressed in Escherichia coli BL21(DE3) pLys after 60 to 80 secs in presence of 50 mM phosphate buffer by SPR assay

Chain of Growth factor receptor-bound protein 7 (Homo sapiens) (Q14451 whole entry, the tested form may be a part): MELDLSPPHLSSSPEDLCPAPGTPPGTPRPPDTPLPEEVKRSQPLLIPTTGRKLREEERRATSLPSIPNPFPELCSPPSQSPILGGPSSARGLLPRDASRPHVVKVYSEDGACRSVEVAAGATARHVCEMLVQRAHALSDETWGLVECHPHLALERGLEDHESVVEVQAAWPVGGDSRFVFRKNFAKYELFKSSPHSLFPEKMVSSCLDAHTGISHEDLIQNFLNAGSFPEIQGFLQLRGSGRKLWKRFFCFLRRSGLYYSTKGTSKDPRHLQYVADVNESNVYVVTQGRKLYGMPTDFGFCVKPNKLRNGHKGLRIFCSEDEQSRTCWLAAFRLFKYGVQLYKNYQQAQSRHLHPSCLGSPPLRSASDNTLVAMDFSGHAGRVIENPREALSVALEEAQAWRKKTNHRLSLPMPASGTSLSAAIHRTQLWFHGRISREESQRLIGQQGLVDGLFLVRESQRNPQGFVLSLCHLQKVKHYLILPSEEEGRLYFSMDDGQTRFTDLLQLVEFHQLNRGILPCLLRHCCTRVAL

| inhibition [1] | inhibition [2] | inhibition [3] | inhibition [4] | inhibition [5] | inhibition [6] | Activity [7] | Activity [8] | Activity [9] | Activity [10] | Compound |
| --- | --- | --- | --- | --- | --- | --- | --- | --- | --- | --- |
| Active | Active | Active | Active | Active | Active | – | – | – | – | CC[C@H](C)[C@H](NC(=O)[C@H](CCCCN)NC(=O)[C@@H](NC(=O)[C@H](CCC(N)=O)NC(=O)[C@H](CCCNC(=N)N)NC(=O)[C@@H]1CSCC(=O)N[C@@H](Cc2c[nH]c3ccccc23)C(=O)N[C@@H](Cc2ccccc2)C(=O)N[C@@H](CCC(=O)O)C(=O)NCC(=O)N[C@@H](Cc2ccc(C(=O)O)cc2)C(=O)N[C@@H](CC(=O)O)C(=O)N[C@@H](CC(N)=O)C(=O)N[C@@H]([C@@H](C)O)C(=O)N[C@@H](Cc2ccccc2)C(=O)N2CCC[C@H]2C(=O)N1)[C@@H](C)CC)C(=O)N[C@@H](Cc1c[nH]c2ccccc12)C(=O)N[C@@H](Cc1ccccc1)C(=O)N[C@@H](CCC(N)=O)C(=O)N[C@@H](CC(N)=O)C(=O)N[C@@H](CCCNC(=N)N)C(=O)N[C@@H](CCCNC(=N)N)C(=O)N[C@@H](CCSC)C(=O)N[C@@H](CCCCN)C(=O)N[C@@H](Cc1c[nH]c2ccccc12)C(=O)N[C@@H](CCCCN)C(=O)N[C@@H](CCCCN)C(N)=O |
| – | – | – | – | – | – | inactive | inactive | inactive | inactive | NC(=O)C[C@@H]1NC(=O)[C@H](CC(=O)O)NC(=O)[C@H](Cc2ccc(O)cc2)NC(=O)CNC(=O)[C@H](CCC(=O)O)NC(=O)[C@H](Cc2ccccc2)NC(=O)[C@@H]2CCC(=O)NCCCC[C@H](NC1=O)C(=O)N[C@H](C(N)=O)CSCC(=O)N2 ({CH2CO}-EFEGYDNKC-NH2; lactam 1-8; thioether N-9) |

Further lines, the molecule ahead of its results:

| Compound | inhibition [1] | inhibition [2] | inhibition [3] | inhibition [4] | inhibition [5] | inhibition [6] | Activity [7] | Activity [8] | Activity [9] | Activity [10] |
| --- | --- | --- | --- | --- | --- | --- | --- | --- | --- | --- |
| CC[C@H](C)[C@H](NC(=O)[C@H](CCCCN)NC(=O)[C@@H](NC(=O)[C@H](CCC(N)=O)NC(=O)[C@H](CCCNC(=N)N)NC(=O)[C@@H]1CSCC(=O)N[C@H]2CCCCNC(=O)CC[C@H](NC(=O)[C@H](CC(N)=O)NC(=O)[C@H](CC(=O)O)NC(=O)[C@H](Cc3ccc(O)cc3)NC(=O)CNC(=O)[C@H](CCC(=O)O)NC(=O)[C@H](Cc3ccccc3)NC2=O)C(=O)N1)[C@@H](C)CC)C(=O)N[C@@H](Cc1c[nH]c2ccccc12)C(=O)N[C@@H](Cc1ccccc1)C(=O)N[C@@H](CCC(N)=O)C(=O)N[C@@H](CC(N)=O)C(=O)N[C@@H](CCCNC(=N)N)C(=O)N[C@@H](CCCNC(=N)N)C(=O)N[C@@H](CCSC)C(=O)N[C@@H](CCCCN)C(=O)N[C@@H](Cc1c[nH]c2ccccc12)C(=O)N[C@@H](CCCCN)C(=O)N[C@@H](CCCCN)C(N)=O ({CH2CO}-KFEGYDNECRQIKIWFQNRRMKWKK-NH2; lactam 1-8; thioether N-9) | Active | Active | Active | Active | Active | Active | – | – | – | – |
| CC[C@H](C)[C@H](NC(=O)[C@H](CCCCN)NC(=O)[C@@H](NC(=O)[C@H](CCC(N)=O)NC(=O)[C@H](CCCNC(=N)N)NC(=O)[C@@H]1CSCC(=O)N[C@H]2CCCCNC(=O)CC[C@H](NC(=O)[C@H](CC(N)=O)NC(=O)[C@H](CC(=O)O)NC(=O)[C@H](Cc3ccc(C(=O)O)cc3)NC(=O)CNC(=O)[C@H](CCC(=O)O)NC(=O)[C@H](Cc3ccccc3)NC2=O)C(=O)N1)[C@@H](C)CC)C(=O)N[C@@H](Cc1c[nH]c2ccccc12)C(=O)N[C@@H](Cc1ccccc1)C(=O)N[C@@H](CCC(N)=O)C(=O)N[C@@H](CC(N)=O)C(=O)N[C@@H](CCCNC(=N)N)C(=O)N[C@@H](CCCNC(=N)N)C(=O)N[C@@H](CCSC)C(=O)N[C@@H](CCCCN)C(=O)N[C@@H](Cc1c[nH]c2ccccc12)C(=O)N[C@@H](CCCCN)C(=O)N[C@@H](CCCCN)C(N)=O ({CH2CO}-KFEG[Phe(4-COOH)]DNECRQIKIWFQNRRMKWKK-NH2; lactam 1-8; thioether N-9) | Active | Active | Active | Active | Active | Active | – | – | – | – |
| NC(=O)C[C@@H]1NC(=O)[C@H](CC(=O)O)NC(=O)[C@H](Cc2ccc(O)cc2)NC(=O)CNC(=O)[C@H](CCC(=O)O)NC(=O)[C@H](Cc2ccccc2)NC(=O)[C@@H]2CCCCNC(=O)CC[C@H](NC1=O)C(=O)N[C@H](C(N)=O)CSCC(=O)N2 ({CH2CO}-KFEGYDNEC-NH2; lactam 1-8; thioether N-9) | – | – | – | – | – | – | inactive | inactive | inactive | inactive |
| NC(=O)C[C@@H]1NC(=O)[C@H](CC(=O)O)NC(=O)[C@H](Cc2ccc(O)cc2)NC(=O)CNC(=O)[C@H](CCC(=O)O)NC(=O)[C@H](Cc2ccccc2)NC(=O)[C@@H]2COCc3cn(nn3)CCC[C@H](NC1=O)C(=O)N[C@H](C(N)=O)CSCC(=O)N2 | – | – | – | – | – | – | inactive | inactive | inactive | inactive |
